Data on ten compounds can be found in ChEMBL document CHEMBL1201862, “PubChem BioAssay data set” (2004).

Common to all, as to experiment: NCI-60 cell line screen, 48 h
Test [1] relates to K562.
Test [2] has as its system SK-MEL-2.
The test system of test [3] is OVCAR-5.
Test [4] deals with SR.
In test [5] the test system is U-251.
Test [6] relates to UACC-257.
Test [7] deals with SN12C.
Test [8] concerns MDA-MB-435.
Test [9] relates to HCT-15.
The test system of test [10] is SW-620.
Test [11] relates to M14.
The subject of test [12] is SNB-19.
In test [13] the test system is LOX IMVI.
Test [14] has as its system A549.
The subject of test [15] is SNB-75.
The test system of test [16] is NCI-H226.
In test [17] the test system is KM12.
Test [18] has as its system Hs-578T.
The test system of test [19] is OVCAR-4.

Structures are written as SMILES.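 Tested at 5 concentrations; 48 h exposure; 96-well plates; endpoints linearly interpolated, else capped at highest concentration. GI50: concentration for 50% inhibition of growth.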 Activity calls are given as the source filed them. Cut-off read from the data, not from the text of the source: active = GI50 up to about 1.1 µM and inactive = higher. Positions of bridges follow the written chain, without caps; N, C: chain ends. Square brackets hold non-standard residues; d marks the D form. Residues, ends and D or L forms follow the SMILES beside them. Peptide text beside a SMILES is read from it. * marks the point of attachment. ξ: configuration not given here. NMeY = CN[C@@H](Cc1ccc(O)cc1)C(=O)O; Cbz = O=C(OCc1ccccc1)*; ξA = CC(N)C(=O)O Some results are limits rather than exact numbers.

For the compound `CC(C)C(C/C=C1\CC(CO)(COC(=O)C(C)(C)C)OC1=O)C(C)C` (stereo not given), the GI50 in [1] was 0.942 µM (active); in test [2], 20.6 µM (inactive); in test [3], 10.5 µM (inactive); in test [4], 11.5 µM (inactive); in [5], 10.7 µM (inactive); in [6], 16 µM (inactive). Further, the GI50 is 5.69 µM (inactive) in test [7]; 11.9 µM (inactive) in test [8]; 13.4 µM in test [9]; 4.48 µM (inactive) in test [10]; 13.9 µM (inactive) in [11]; 13 µM (inactive) in test [12]. The GI50 is 2.88 µM (inactive) in [13]; 4.42 µM (inactive) in test [14]; 1.84 µM (inactive) in test [15]; 5.12 µM (inactive) in test [16]; 12.7 µM (inactive) in test [17]; 2.5 µM (inactive) in [18]. Moreover, the GI50 in [19] is 16.3 µM (inactive).
For the compound `Fc1ccc(N2C(=S)SC(=N\c3ccccc3)/C2=N/c2ccccc2)cc1`, the GI50 in [1] was 14.9 µM (inactive); in [2] it was > 40.5 µM (inactive); in test [3] it was > 85.3 µM (inactive); in [4], 25.1 µM (inactive); in test [5], > 87.7 µM (inactive); in test [6], > 67.1 µM (inactive). In addition, the GI50 is > 100 µM (inactive) in [7]; > 100 µM (inactive) in test [8]; > 85.1 µM in test [9]; > 100 µM (inactive) in test [10]; > 100 µM (inactive) in test [11]; > 100 µM (inactive) in [12]. Besides, the GI50 was > 100 µM (inactive) in test [13]; > 79.8 µM (inactive) in [14]; > 100 µM (inactive) in test [15]; > 100 µM (inactive) in test [16]; 73.1 µM (inactive) in test [17]; 81.3 µM (inactive) in test [18]. Besides, the GI50 in [19] was > 57.7 µM (inactive).
For `C=C1C(=O)OC2CC(C)C(C(CC(C)=O)OC(C)=O)=CCC12` (stereo not given), the GI50 in test [1] was 3.24 µM (inactive); in test [2], 18 µM (inactive); in test [3], 17.6 µM (inactive); in [4], 2.88 µM (inactive); in test [5], 15.8 µM (inactive); in [6], 16.5 µM (inactive). Also, the GI50 was 4.27 µM (inactive) in [7]; 16.3 µM (inactive) in test [8]; 2.75 µM in [9]; 3.03 µM (inactive) in [10]; 11 µM (inactive) in [11]; 36.6 µM (inactive) in test [12]. Moreover, the GI50 in [13] is 6.78 µM (inactive); in [14], 28.2 µM (inactive); in test [15] it was 23.1 µM (inactive); in test [16], 34.1 µM (inactive); in [17], 18.6 µM (inactive); in test [18], > 100 µM (inactive). Further, the GI50 in [19] is 17 µM (inactive).
Consider `CCOC(=O)c1cn2c(n1)sc1cc(F)ccc12`, for which the GI50 was > 100 µM (inactive) in [1]; > 100 µM (inactive) in test [2]; 25.2 µM (inactive) in [3]; 16.1 µM (inactive) in [4]; 77.6 µM (inactive) in test [5]; > 100 µM (inactive) in [6]. The GI50 in test [7] was > 100 µM (inactive); in [8], 42.3 µM (inactive); in [9], > 100 µM; in test [10] it was > 100 µM (inactive); in test [11], 64.4 µM (inactive); in [12], > 100 µM (inactive). Besides, the GI50 in [13] was 80.7 µM (inactive); in test [14], > 100 µM (inactive); in test [15], 58.5 µM (inactive); in [16] it was > 100 µM (inactive); in test [17], 62.8 µM (inactive); in test [18] it was 64.3 µM (inactive). For the same compound, in test [19], the GI50 is > 100 µM (inactive).
Turning to `COc1ccc(NS(=O)(=O)c2ccc3ncn(NS(=O)(=O)c4ccc(I)cc4)c(=O)c3c2)cc1`, the GI50 in test [1] was 7.26 µM (inactive); in [2] it was > 100 µM (inactive); in test [3], > 100 µM (inactive); in test [4] it was 72.9 µM (inactive); in [5] it was > 100 µM (inactive); in [6], > 100 µM (inactive). Moreover, the GI50 is > 100 µM (inactive) in test [7]; 84.1 µM (inactive) in test [8]; > 100 µM in test [9]; > 100 µM (inactive) in test [10]; > 100 µM (inactive) in [11]; > 100 µM (inactive) in test [12]. In addition, the GI50 in test [13] was 8.77 µM (inactive); in test [14] it was > 100 µM (inactive); in [15] it was > 100 µM (inactive); in test [16], 9.86 µM (inactive); in test [17] it was 8.89 µM (inactive); in [18], > 100 µM (inactive). For the same compound, in test [19], the GI50 is > 100 µM (inactive).
On to `CN(C)Cc1cc(/N=N/c2ccccc2)cc(CN(C)C)c1O`, for which the GI50 is 97.5 µM (inactive) in test [1]; 64.4 µM (inactive) in [2]; > 100 µM (inactive) in test [3]; > 100 µM (inactive) in test [4]; 99.1 µM (inactive) in test [5]; > 100 µM (inactive) in test [6]. The GI50 in test [7] was > 100 µM (inactive); in test [8], > 100 µM (inactive); in test [9] it was 56.6 µM; in [10], > 100 µM (inactive); in test [11], > 100 µM (inactive); in test [12], > 100 µM (inactive). In addition, the GI50 is 47.2 µM (inactive) in test [13]; > 100 µM (inactive) in test [14]; > 100 µM (inactive) in test [15]; > 100 µM (inactive) in [16]; 98.6 µM (inactive) in test [17]; > 100 µM (inactive) in test [18]. In addition, the GI50 in test [19] was 35.8 µM (inactive).
On to `COc1ccc(C[C@@H](C(=O)N[C@@H](C)C(N)=O)N(C)C(=O)[C@@H]2CCCN2C(=O)[C@H](CC(C)C)NC(=O)C(C)NC(=O)OCc2ccccc2)cc1` (stereo not given in full) (Cbz-[ξA]LP[NMeY](Me)A-NH2), for which the GI50 is 84.3 µM (inactive) in [1]; > 100 µM (inactive) in [2]; > 100 µM (inactive) in test [3]; > 100 µM (inactive) in [4]; > 100 µM (inactive) in test [5]; > 10 µM (inactive) in test [6]. The GI50 in [7] was > 100 µM (inactive); in test [8] it was > 100 µM (inactive); in test [9] it was > 100 µM; in [10], > 100 µM (inactive); in test [11], > 100 µM (inactive); in test [12], > 100 µM (inactive). The GI50 was > 100 µM (inactive) in test [13]; > 100 µM (inactive) in test [14]; 66.1 µM (inactive) in test [15]; > 100 µM (inactive) in test [16]; > 100 µM (inactive) in [17]; 4.94 µM (inactive) in test [18]. Further, the GI50 in test [19] was > 100 µM (inactive).
Regarding `COC(=O)C1CCC(=O)NCCCCC(NC(=O)C(N)CC(=O)O)C(=O)N1` (stereo not drawn) (H-Asp-Lys-Glu-OMe; lactam 2-3; configuration not given here), the GI50 in [1], in [2], in [3], in test [4], in test [5] and in test [6] was > 100 µM (inactive) throughout. For the same compound, the GI50 in test [7] was > 100 µM (inactive); in [8], > 100 µM (inactive); in [9], > 100 µM; in test [10], > 100 µM (inactive); in test [11], > 100 µM (inactive); in test [12], > 100 µM (inactive). Further, the GI50 in test [13] was > 100 µM (inactive); in [14], > 100 µM (inactive); in test [15], 88.7 µM (inactive); in test [16] it was > 100 µM (inactive); in test [17] it was > 100 µM (inactive); in [18], > 100 µM (inactive). Also, the GI50 in [19] is > 100 µM (inactive).
`CCC(C)C(NC(=O)C(NC(=O)C(CC(N)=O)NC(=O)CN)C(C)O)C(=O)NC(C(=O)NC(C)C(=O)NC(C(=O)NC(CCC(=O)O)C(=O)NC(CC(C)C)C(=O)NC(CC(=O)O)C(=O)NC(C(=O)NC(Cc1ccc(O)cc1)C(=O)N1CCCC1C(=O)O)C(C)O)C(C)C)C(C)C` (stereo not given) (H-GNTIVAVELDTYP-OH; configuration not given here): the GI50 in test [1], in test [2], in [3], in test [4], in [5] and in test [6] was > 50 µM (inactive) each time. In addition, the GI50 was > 50 µM (inactive) in test [7]; > 50 µM (inactive) in test [8]; > 50 µM in test [9]; > 50 µM (inactive) in test [10]; > 50 µM (inactive) in test [11]; > 50 µM (inactive) in [12]. The GI50 in [13], in [14], in test [15], in test [16], in [17] and in test [18] was > 50 µM (inactive) throughout. In addition, the GI50 in test [19] was > 50 µM (inactive).
With `CCC(CO)Nc1nc(NCc2ccccc2)c2ncn(C(C)C)c2n1` (stereo not drawn) [(RS)-ROSCOVITINE], the GI50 in test [1] is 46.6 µM (inactive); in [2] it was 20.7 µM (inactive); in [3] it was 20.7 µM (inactive); in test [4], 7.1 µM (inactive); in test [5], 27.9 µM (inactive); in test [6], 30.3 µM (inactive). In addition, the GI50 was 32.7 µM (inactive) in test [7]; 23.4 µM (inactive) in test [8]; 17.9 µM in test [9]; 25.2 µM (inactive) in [10]; 16.8 µM (inactive) in test [11]; 34.9 µM (inactive) in test [12]. Also, the GI50 in [13] is 16.5 µM (inactive); in [14], 23.3 µM (inactive); in test [15] it was 13.8 µM (inactive); in test [16], 15 µM (inactive); in [17] it was 12.7 µM (inactive); in test [18], 4.58 µM (inactive). Also, in test [19], the GI50 is 20.2 µM (inactive).
